Source: ChEMBL document CHEMBL5303573, “Mapping human microbiome drug metabolism by gut bacteria and their genes” (Nature, 2019)

Details: bacteroides stercoris, 12 h, 2 µM
Description: The drug is tested on Bacteroides stercoris strain: ATCC43183 for biotransformation. The drug concentrations were measured before and after a 12-h incubation by liquid-chromatography-coupled mass spectrometry (LC–MS)
For `CC(=O)CCCCn1c(=O)c2c(ncn2C)n(C)c1=O` [PENTOXIFYLLINE], the “Bacterial Biotransformation” value was “Compound NOT metabolized”. For `CC(=O)O[C@]1(C(C)=O)CC[C@H]2[C@@H]3C=C(C)C4=CC(=O)CC[C@]4(C)[C@H]3CC[C@@]21C` [MEGESTROL ACETATE], the “Bacterial Biotransformation” value was “Compound metabolized”.

Experiment: The drug is tested on Alistipes indistinctus strain: DSM22520 for biotransformation. The drug concentrations were measured before and after a 12-h incubation by liquid-chromatography-coupled mass spectrometry (LC–MS)
Details: 2 µM
With `CC(=O)CCCCn1c(=O)c2c(ncn2C)n(C)c1=O` [PENTOXIFYLLINE] the “Bacterial Biotransformation” value was “Compound NOT metabolized”. For `CC(=O)O[C@]1(C(C)=O)CC[C@H]2[C@@H]3C=C(C)C4=CC(=O)CC[C@]4(C)[C@H]3CC[C@@]21C` [MEGESTROL ACETATE], the “Bacterial Biotransformation” value was “Compound metabolized”.

Details: enterocloster bolteae, 12 h, 2 µM
Description: The drug is tested on Clostridium bolteae strain: ATCCBAA-613 for biotransformation. The drug concentrations were measured before and after a 12-h incubation by liquid-chromatography-coupled mass spectrometry (LC–MS)
In the case of `CC(=O)O[C@]1(C(C)=O)CC[C@H]2[C@@H]3C=C(C)C4=CC(=O)CC[C@]4(C)[C@H]3CC[C@@]21C` [MEGESTROL ACETATE], the “Bacterial Biotransformation” value is reported as “Compound NOT metabolized”.

Experiment: The drug is tested on Bacteroides fragilis strain: HMW610 for biotransformation. The drug concentrations were measured before and after a 12-h incubation by liquid-chromatography-coupled mass spectrometry (LC–MS)
Details: 2 µM
For `CC(=O)CCCCn1c(=O)c2c(ncn2C)n(C)c1=O` [PENTOXIFYLLINE], the “Bacterial Biotransformation” value was “Compound NOT metabolized”. With `CC(=O)O[C@]1(C(C)=O)CC[C@H]2[C@@H]3C=C(C)C4=CC(=O)CC[C@]4(C)[C@H]3CC[C@@]21C` [MEGESTROL ACETATE] the “Bacterial Biotransformation” value was “Compound metabolized”.

Experiment: The drug is tested on Bacteroides fragilis strain: ATCC43859 for biotransformation. The drug concentrations were measured before and after a 12-h incubation by liquid-chromatography-coupled mass spectrometry (LC–MS)
Details: 2 µM
For `CC(=O)CCCCn1c(=O)c2c(ncn2C)n(C)c1=O` [PENTOXIFYLLINE], the “Bacterial Biotransformation” value was “Compound NOT metabolized”. For `CC(=O)O[C@]1(C(C)=O)CC[C@H]2[C@@H]3C=C(C)C4=CC(=O)CC[C@]4(C)[C@H]3CC[C@@]21C` [MEGESTROL ACETATE], the “Bacterial Biotransformation” value was “Compound metabolized”.

Experiment: The drug is tested on Subdoligranulum variabile strain: DSM15176 for biotransformation. The drug concentrations were measured before and after a 12-h incubation by liquid-chromatography-coupled mass spectrometry (LC–MS)
Details: 2 µM
With `CC(=O)CCCCn1c(=O)c2c(ncn2C)n(C)c1=O` [PENTOXIFYLLINE] the “Bacterial Biotransformation” value was “Compound NOT metabolized”. For `CC(=O)O[C@]1(C(C)=O)CC[C@H]2[C@@H]3C=C(C)C4=CC(=O)CC[C@]4(C)[C@H]3CC[C@@]21C` [MEGESTROL ACETATE], the “Bacterial Biotransformation” value was “Compound NOT metabolized”.

Experiment: The drug is tested on Dorea formicigenerans strain: ATCC27755 for biotransformation. The drug concentrations were measured before and after a 12-h incubation by liquid-chromatography-coupled mass spectrometry (LC–MS)
Details: 2 µM
In the case of `CC(=O)CCCCn1c(=O)c2c(ncn2C)n(C)c1=O` [PENTOXIFYLLINE], the “Bacterial Biotransformation” value is reported as “Compound NOT metabolized”. In the case of `CC(=O)O[C@]1(C(C)=O)CC[C@H]2[C@@H]3C=C(C)C4=CC(=O)CC[C@]4(C)[C@H]3CC[C@@]21C` [MEGESTROL ACETATE], the “Bacterial Biotransformation” value is reported as “Compound NOT metabolized”.

Experiment: The drug is tested on Bacteroides coprophilus strain: DSM18228 for biotransformation. The drug concentrations were measured before and after a 12-h incubation by liquid-chromatography-coupled mass spectrometry (LC–MS)
Details: 2 µM
In the case of `CC(=O)CCCCn1c(=O)c2c(ncn2C)n(C)c1=O` [PENTOXIFYLLINE], the “Bacterial Biotransformation” value is reported as “Compound NOT metabolized”. With `CC(=O)O[C@]1(C(C)=O)CC[C@H]2[C@@H]3C=C(C)C4=CC(=O)CC[C@]4(C)[C@H]3CC[C@@]21C` [MEGESTROL ACETATE] the “Bacterial Biotransformation” value was “Compound NOT metabolized”.

Experiment: The drug is tested on Collinsella intestinalis strain: DSM13280 for biotransformation. The drug concentrations were measured before and after a 12-h incubation by liquid-chromatography-coupled mass spectrometry (LC–MS)
Details: 2 µM
With `CC(=O)CCCCn1c(=O)c2c(ncn2C)n(C)c1=O` [PENTOXIFYLLINE] the “Bacterial Biotransformation” value was “Compound NOT metabolized”. In the case of `CC(=O)O[C@]1(C(C)=O)CC[C@H]2[C@@H]3C=C(C)C4=CC(=O)CC[C@]4(C)[C@H]3CC[C@@]21C` [MEGESTROL ACETATE], the “Bacterial Biotransformation” value is reported as “Compound NOT metabolized”.

Experiment: The drug is tested on Ruminococcus torques strain: ATCC27756 for biotransformation. The drug concentrations were measured before and after a 12-h incubation by liquid-chromatography-coupled mass spectrometry (LC–MS)
Assay type: ADME
Design: dose 2 uM, timepoint 0 vs 12 hours
Details: 2 µM
For `CC(=O)CCCCn1c(=O)c2c(ncn2C)n(C)c1=O` [PENTOXIFYLLINE], the “Bacterial Biotransformation” value was “Compound NOT metabolized”. In the case of `CC(=O)O[C@]1(C(C)=O)CC[C@H]2[C@@H]3C=C(C)C4=CC(=O)CC[C@]4(C)[C@H]3CC[C@@]21C` [MEGESTROL ACETATE], the “Bacterial Biotransformation” value is reported as “Compound NOT metabolized”.

Experiment: The drug is tested on Eubacterium rectale strain: ATCC33656 for biotransformation. The drug concentrations were measured before and after a 12-h incubation by liquid-chromatography-coupled mass spectrometry (LC–MS)
Details: agathobacter rectalis, 2 µM
In the case of `CC(=O)CCCCn1c(=O)c2c(ncn2C)n(C)c1=O` [PENTOXIFYLLINE], the “Bacterial Biotransformation” value is reported as “Compound NOT metabolized”. For `CC(=O)O[C@]1(C(C)=O)CC[C@H]2[C@@H]3C=C(C)C4=CC(=O)CC[C@]4(C)[C@H]3CC[C@@]21C` [MEGESTROL ACETATE], the “Bacterial Biotransformation” value was “Compound NOT metabolized”.

Experiment: The drug is tested on Parabacteroides merdae strain: ATCC43184 for biotransformation. The drug concentrations were measured before and after a 12-h incubation by liquid-chromatography-coupled mass spectrometry (LC–MS)
Details: 2 µM
For `CC(=O)CCCCn1c(=O)c2c(ncn2C)n(C)c1=O` [PENTOXIFYLLINE], the “Bacterial Biotransformation” value was “Compound NOT metabolized”. For `CC(=O)O[C@]1(C(C)=O)CC[C@H]2[C@@H]3C=C(C)C4=CC(=O)CC[C@]4(C)[C@H]3CC[C@@]21C` [MEGESTROL ACETATE], the “Bacterial Biotransformation” value was “Compound metabolized”.

Experiment: The drug is tested on Bacteroides ovatus strain: ATCC8483 for biotransformation. The drug concentrations were measured before and after a 12-h incubation by liquid-chromatography-coupled mass spectrometry (LC–MS)
Details: 2 µM
In the case of `CC(=O)CCCCn1c(=O)c2c(ncn2C)n(C)c1=O` [PENTOXIFYLLINE], the “Bacterial Biotransformation” value is reported as “Compound NOT metabolized”. With `CC(=O)O[C@]1(C(C)=O)CC[C@H]2[C@@H]3C=C(C)C4=CC(=O)CC[C@]4(C)[C@H]3CC[C@@]21C` [MEGESTROL ACETATE] the “Bacterial Biotransformation” value was “Compound NOT metabolized”.

Experiment: The drug is tested on Clostridium symbiosum strain: ATCC14940 for biotransformation. The drug concentrations were measured before and after a 12-h incubation by liquid-chromatography-coupled mass spectrometry (LC–MS)
Details: 2 µM
For `CC(=O)CCCCn1c(=O)c2c(ncn2C)n(C)c1=O` [PENTOXIFYLLINE], the “Bacterial Biotransformation” value was “Compound NOT metabolized”. In the case of `CC(=O)O[C@]1(C(C)=O)CC[C@H]2[C@@H]3C=C(C)C4=CC(=O)CC[C@]4(C)[C@H]3CC[C@@]21C` [MEGESTROL ACETATE], the “Bacterial Biotransformation” value is reported as “Compound NOT metabolized”.

Experiment: The drug is tested on Coprococcus comes strain: ATCC27758 for biotransformation. The drug concentrations were measured before and after a 12-h incubation by liquid-chromatography-coupled mass spectrometry (LC–MS)
Assay type: ADME
Design: dose 2 uM, timepoint 0 vs 12 hours
Details: 2 µM
For `CC(=O)CCCCn1c(=O)c2c(ncn2C)n(C)c1=O` [PENTOXIFYLLINE], the “Bacterial Biotransformation” value was “Compound NOT metabolized”. For `CC(=O)O[C@]1(C(C)=O)CC[C@H]2[C@@H]3C=C(C)C4=CC(=O)CC[C@]4(C)[C@H]3CC[C@@]21C` [MEGESTROL ACETATE], the “Bacterial Biotransformation” value was “Compound NOT metabolized”.

Experiment: The drug is tested on Edwardsiella tarda strain: ATCC23685 for biotransformation. The drug concentrations were measured before and after a 12-h incubation by liquid-chromatography-coupled mass spectrometry (LC–MS)
Details: 2 µM
For `CC(=O)CCCCn1c(=O)c2c(ncn2C)n(C)c1=O` [PENTOXIFYLLINE], the “Bacterial Biotransformation” value was “Compound NOT metabolized”. For `CC(=O)O[C@]1(C(C)=O)CC[C@H]2[C@@H]3C=C(C)C4=CC(=O)CC[C@]4(C)[C@H]3CC[C@@]21C` [MEGESTROL ACETATE], the “Bacterial Biotransformation” value was “Compound NOT metabolized”.

Experiment: The drug is tested on Blautia luti strain: DSM14534 for biotransformation. The drug concentrations were measured before and after a 12-h incubation by liquid-chromatography-coupled mass spectrometry (LC–MS)
Assay type: ADME
Design: dose 2 uM, timepoint 0 vs 12 hours
Details: 2 µM
For `CC(=O)CCCCn1c(=O)c2c(ncn2C)n(C)c1=O` [PENTOXIFYLLINE], the “Bacterial Biotransformation” value was “Compound NOT metabolized”.

Experiment: The drug is tested on Enterobacter cancerogenus strain: ATCC35316 for biotransformation. The drug concentrations were measured before and after a 12-h incubation by liquid-chromatography-coupled mass spectrometry (LC–MS)
Details: 2 µM
In the case of `CC(=O)CCCCn1c(=O)c2c(ncn2C)n(C)c1=O` [PENTOXIFYLLINE], the “Bacterial Biotransformation” value is reported as “Compound NOT metabolized”. For `CC(=O)O[C@]1(C(C)=O)CC[C@H]2[C@@H]3C=C(C)C4=CC(=O)CC[C@]4(C)[C@H]3CC[C@@]21C` [MEGESTROL ACETATE], the “Bacterial Biotransformation” value was “Compound NOT metabolized”.

Experiment: The drug is tested on Clostridium asparagiforme strain: DSM15981 for biotransformation. The drug concentrations were measured before and after a 12-h incubation by liquid-chromatography-coupled mass spectrometry (LC–MS)
Assay type: ADME
Design: dose 2 uM, timepoint 0 vs 12 hours
Details: enterocloster asparagiformis, 2 µM
With `CC(=O)CCCCn1c(=O)c2c(ncn2C)n(C)c1=O` [PENTOXIFYLLINE] the “Bacterial Biotransformation” value was “Compound NOT metabolized”. In the case of `CC(=O)O[C@]1(C(C)=O)CC[C@H]2[C@@H]3C=C(C)C4=CC(=O)CC[C@]4(C)[C@H]3CC[C@@]21C` [MEGESTROL ACETATE], the “Bacterial Biotransformation” value is reported as “Compound NOT metabolized”.

Experiment: The drug is tested on Bacteroides pectinophilus strain: ATCC43243 for biotransformation. The drug concentrations were measured before and after a 12-h incubation by liquid-chromatography-coupled mass spectrometry (LC–MS)
Details: 2 µM
For `CC(=O)O[C@]1(C(C)=O)CC[C@H]2[C@@H]3C=C(C)C4=CC(=O)CC[C@]4(C)[C@H]3CC[C@@]21C` [MEGESTROL ACETATE], the “Bacterial Biotransformation” value was “Compound NOT metabolized”.
